From US20090270342A1, “IMMUNOREGULATORY AGENT” (priority 2006, published 2009)

How the values were obtained:
spleen cells = test: Cytokine production by spleen cells of OVA-sensitized mice restimulated with OVA (Experiment 6); assay type: in vivo
Procedure: In order to investigate the effect of lactosucrose on systemic immunity, the ability for producing cytokines of spleen cells was measured. At two weeks after the second sensitization in Experiment 4, spleens were removed from the mice of the control group and the group administrated with lactosucrose and the spleen cells were adjusted to give a cell concentration of 1×10^7/ml, and then placed in a 24-well plate. At two days or four days after adding 50 μg/ml of OVA, the amounts of IFN-γ, interleukin-2 (IL-2), IL-4, interleukin-5 (IL-5), and IL-10 in the culture supernatant were determined by conventional EIAs using antibodies (commercialized by BD-Pharmingen) corresponding to those. The percentages in parentheses in Table 9 mean relative values to the concentrations of respective cytokines produced by spleen cells from the control mice.

Peyer's patch cells = test: Production of IgA, IgG and cytokines by Peyer's patch cells of mice fed lactosucrose (Experiment 3); assay type: in vivo; details: for IFN-γ produced by Peyer's patch cells / IL-4 produced by Peyer's patch cells / IL-6 produced by Peyer's patch cells / IgA produced by Peyer's patch cells / IgG produced by Peyer's patch cells / TGF-β produced by Peyer's patch cells / IL-10 produced by Peyer's patch cells: four weeks
Procedure: In order to investigate what type of immunopathologically-mediated tissue exerts the enhancing effect on gut immunity, the amounts of IgA, IgG, and various cytokines were measured. Similarly as in Experiment 1, female BALB/c mice (six weeks old) were preliminary reared for one week on “AIN-93G”, the same standard purified diet as used in Experiment 1. Successively, “LS-90P”, a saccharide composition comprising 91.8% (w/w), on a dry solid basis, of lactosucrose commercialized by ENSUIKO Sugar Refining Co., Ltd., Tokyo, Japan, was incorporated into the above purified diet, in which corn starch equal to the amount of the saccharide composition comprising lactosucrose had been removed, to give a lactosucrose content of 2% (w/w) or 5% (w/w), and five mice/group were allowed to ingest the resulting test diet freely. Mice, allowed to ingest “AIN-93G”, as the standard purified diet, were used as control. At four weeks after starting the administration of the test diet, Peyer's patch and intestinal lymph nodes were respectively removed from the mice and cut using a scissor. Then, the resultants were respectively treated in 0.2% (w/v) aqueous collagenase solution at 37° C. for 30 min, and filtrated using a cell strainer to obtain cell suspensions. Each cell suspension was centrifuged to collect cells and the resulting cells were suspended into a 45% (v/v) solution of “PERCOLL”, commercialized by GE Healthcare, to make into a cell suspension. Each resulting suspension was successively placed on a 75% (v/v) “PERCOLL” solution and centrifuged at 1,000×g for 10 min. Cells in a boundary phase between 45% (v/v) and 75% (v/v) “PERCOLL” solution were collected and suspended in RPMI1640 medium comprising 10% FCS and 10 mM HEPES, and the cell concentration was adjusted to 1×10^6 cells/ml. The resulting cell suspension was placed in a 24-well plate to give one ml/well each. Then, 2 μg/ml of Concanavaline A (Con A) as a stimulator to T-cell or 10 μg/ml of lipopolysaccharide (LPS) as a stimulator to B-cell and macrophage cell was admixed with the cell suspension, and then the cells were cultured at 37° C. for 48 hours using 5% (v/v) carbon dioxide gas. A culture supernatant was collected from each well, and the amounts of IgA, IgG, IFN-γ, interleukin-4 (IL-4), IL-6, interleukin-10 (IL-10), and TGF-β were measured by ELISA using an anti-mouse IgA antibody, anti-mouse IgG antibody, anti-mouse IFN-γ antibody (commercialized by Pepro Tech EC. Ltd.), anti-mouse IL-4 antibody (commercialized by R&D Systems), anti-mouse IL-6 antibody (commercialized by R&D Systems), anti-mouse IL-10 antibody (commercialized by R&D Systems), and anti-mouse TGF-β antibody (commercialized by Promega Co., Wisconsin, USA), and the average values of those from five mice were determined. The results for Peyer's patch cells and intestinal lymph node cells are respectively in Tables 3 and 4. The percentages in parentheses in the tables mean a relative value to the amount of IgA, IgG, IFN-γ, IL-4, IL-6, IL-10 or TGF-β produced by Peyer's patch cells or intestinal lymph node cells from the control mice.

[1] = Lactosucrose 5% (w/w) diet, 2 days after adding 50 μg/ml OVA
[2] = Lactosucrose 5% (w/w) diet, 4 days after adding 50 μg/ml OVA
[3] = Lactosucrose 5% (w/w), 2 days after
[4] = Lactosucrose 5% (w/w), 4 days after
[5] = Lactosucrose 2% (w/w) diet, Con A
[6] = Lactosucrose 2% (w/w) diet, LPS
[7] = Lactosucrose 5% (w/w) diet, Con A
[8] = Lactosucrose 5% (w/w) diet, LPS

OC[C@H]1O[C@@H](O[C@H]2[C@H](O)[C@@H](O)[C@@H](O[C@]3(CO)O[C@H](CO)[C@@H](O)[C@@H]3O)O[C@@H]2CO)[C@H](O)[C@@H](O)[C@H]1O [Lactosucrose, β-D-galactosyl-(1,4)-α-D-glucosyl-(1,2)-β-D-fructoside]
IFN-γ produced by spleen cells (spleen cells; [1]): 1.1 ± 0.19 IU/ml
IL-2 produced by spleen cells (spleen cells; [1]): 290 ± 160 pg/mL
IL-4 produced by spleen cells (spleen cells; [1]): 32 ± 10 pg/mL
IL-10 produced by spleen cells (spleen cells; [1]): 0.83 ± 0.27 ng/mL
IFN-γ produced by spleen cells (spleen cells; [2]): 2.9 ± 0.91 IU/ml
IL-4 produced by spleen cells (spleen cells; [2]): 62 ± 31 pg/mL
IL-5 produced by spleen cells (spleen cells; [2]): 1.3 ± 0.32 ng/mL
IL-10 produced by spleen cells (spleen cells; [2]): 2.7 ± 0.32 ng/mL
IFN-γ produced by spleen cells, relative value to control (spleen cells; [3]): (113%)
IL-2 produced by spleen cells, relative value to control (spleen cells; [3]): (78%)
IL-4 produced by spleen cells, relative value to control (spleen cells; [3]): (107%)
IL-10 produced by spleen cells, relative value to control (spleen cells; [3]): (126%)
IFN-γ produced by spleen cells, relative value to control (spleen cells; [4]): (88%)
IL-4 produced by spleen cells, relative value to control (spleen cells; [4]): (63%)
IL-5 produced by spleen cells, relative value to control (spleen cells; [4]): (81%)
IL-10 produced by spleen cells, relative value to control (spleen cells; [4]): (123%)
IFN-γ produced by Peyer's patch cells (Peyer's patch cells; [5]): 11 ± 5.0 ng/mL
IL-4 produced by Peyer's patch cells (Peyer's patch cells; [5]): 22 ± 0.58 pg/mL
IL-6 produced by Peyer's patch cells (Peyer's patch cells; [5]): 35 ± 14 pg/mL
IgA produced by Peyer's patch cells (Peyer's patch cells; [5]): 1.9 ± 0.49 µg/mL
IgG produced by Peyer's patch cells (Peyer's patch cells; [5]): 110 ± 28 ng/mL
TGF-β produced by Peyer's patch cells (Peyer's patch cells; [5]): 0.40 ± 0.24 ng/mL
IL-10 produced by Peyer's patch cells (Peyer's patch cells; Lactosucrose 2% (w/w) diet, Con A, DL: Detection limit): Below DL*
IFN-γ produced by Peyer's patch cells (Peyer's patch cells; [6]): 1.2 ± 0.44 ng/mL
IL-4 produced by Peyer's patch cells (Peyer's patch cells; [6]): 15 ± 1.6 pg/mL
IL-6 produced by Peyer's patch cells (Peyer's patch cells; [6]): 250 ± 27 pg/mL
IL-10 produced by Peyer's patch cells (Peyer's patch cells; [6]): 200 ± 57 pg/mL
IgA produced by Peyer's patch cells (Peyer's patch cells; [6]): 1.9 ± 1.8 µg/mL
IgG produced by Peyer's patch cells (Peyer's patch cells; [6]): 110 ± 90 ng/mL
TGF-β produced by Peyer's patch cells (Peyer's patch cells; [6]): 1.3 ± 0.20 ng/mL
IFN-γ produced by Peyer's patch cells, relative value to control (Peyer's patch cells; Lactosucrose 2% (w/w), Con A): (100%)
IL-4 produced by Peyer's patch cells, relative value to control (Peyer's patch cells; Lactosucrose 2% (w/w), Con A): (105%)
IL-6 produced by Peyer's patch cells, relative value to control (Peyer's patch cells; Lactosucrose 2% (w/w), Con A): (106%)
IgA produced by Peyer's patch cells, relative value to control (Peyer's patch cells; Lactosucrose 2% (w/w), Con A): (127%)
IgG produced by Peyer's patch cells, relative value to control (Peyer's patch cells; Lactosucrose 2% (w/w), Con A): (151%)
TGF-β produced by Peyer's patch cells, relative value to control (Peyer's patch cells; Lactosucrose 2% (w/w), Con A): (133%)
IFN-γ produced by Peyer's patch cells, relative value to control (Peyer's patch cells; Lactosucrose 2% (w/w), LPS): (146%)
IL-4 produced by Peyer's patch cells, relative value to control (Peyer's patch cells; Lactosucrose 2% (w/w), LPS): (107%)
IL-6 produced by Peyer's patch cells, relative value to control (Peyer's patch cells; Lactosucrose 2% (w/w), LPS): (114%)
IL-10 produced by Peyer's patch cells, relative value to control (Peyer's patch cells; Lactosucrose 2% (w/w), LPS): (95%)
IgA produced by Peyer's patch cells, relative value to control (Peyer's patch cells; Lactosucrose 2% (w/w), LPS): (216%)
IgG produced by Peyer's patch cells, relative value to control (Peyer's patch cells; Lactosucrose 2% (w/w), LPS): (244%)
TGF-β produced by Peyer's patch cells, relative value to control (Peyer's patch cells; Lactosucrose 2% (w/w), LPS): (100%)
IFN-γ produced by Peyer's patch cells (Peyer's patch cells; [7]): 21 ± 13 ng/mL
IL-4 produced by Peyer's patch cells (Peyer's patch cells; [7]): 20 ± 0.74 pg/mL
IL-6 produced by Peyer's patch cells (Peyer's patch cells; [7]): 84 ± 39 pg/mL
IgA produced by Peyer's patch cells (Peyer's patch cells; [7]): 4.5 ± 2.6 µg/mL
IgG produced by Peyer's patch cells (Peyer's patch cells; [7]): 270 ± 120 ng/mL
TGF-β produced by Peyer's patch cells (Peyer's patch cells; [7]): 0.66 ± 0.13 ng/mL
IL-10 produced by Peyer's patch cells (Peyer's patch cells; Lactosucrose 5% (w/w) diet, Con A, DL: Detection limit): Below DL*
IFN-γ produced by Peyer's patch cells (Peyer's patch cells; [8]): 3.0 ± 2.1 ng/mL
IL-4 produced by Peyer's patch cells (Peyer's patch cells; [8]): 14 ± 0.88 pg/mL
IL-6 produced by Peyer's patch cells (Peyer's patch cells; [8]): 470 ± 250 pg/mL
IL-10 produced by Peyer's patch cells (Peyer's patch cells; [8]): 160 ± 56 pg/mL
IgA produced by Peyer's patch cells (Peyer's patch cells; [8]): 7.0 ± 4.0 µg/mL
IgG produced by Peyer's patch cells (Peyer's patch cells; [8]): 370 ± 150 ng/mL
TGF-β produced by Peyer's patch cells (Peyer's patch cells; [8]): 1.2 ± 0.090 ng/mL
IFN-γ produced by Peyer's patch cells, relative value to control (Peyer's patch cells; Lactosucrose 5% (w/w), Con A): (191%)
IL-4 produced by Peyer's patch cells, relative value to control (Peyer's patch cells; Lactosucrose 5% (w/w), Con A): (95%)
IL-6 produced by Peyer's patch cells, relative value to control (Peyer's patch cells; Lactosucrose 5% (w/w), Con A): (255%)
IgA produced by Peyer's patch cells, relative value to control (Peyer's patch cells; Lactosucrose 5% (w/w), Con A): (300%)
IgG produced by Peyer's patch cells, relative value to control (Peyer's patch cells; Lactosucrose 5% (w/w), Con A): (370%)
TGF-β produced by Peyer's patch cells, relative value to control (Peyer's patch cells; Lactosucrose 5% (w/w), Con A): (220%)
IFN-γ produced by Peyer's patch cells, relative value to control (Peyer's patch cells; Lactosucrose 5% (w/w), LPS): (366%)
IL-4 produced by Peyer's patch cells, relative value to control (Peyer's patch cells; Lactosucrose 5% (w/w), LPS): (100%)
IL-6 produced by Peyer's patch cells, relative value to control (Peyer's patch cells; Lactosucrose 5% (w/w), LPS): (214%)
IL-10 produced by Peyer's patch cells, relative value to control (Peyer's patch cells; Lactosucrose 5% (w/w), LPS): (76%)
IgA produced by Peyer's patch cells, relative value to control (Peyer's patch cells; Lactosucrose 5% (w/w), LPS): (795%)
IgG produced by Peyer's patch cells, relative value to control (Peyer's patch cells; Lactosucrose 5% (w/w), LPS): (822%)
TGF-β produced by Peyer's patch cells, relative value to control (Peyer's patch cells; Lactosucrose 5% (w/w), LPS): (92%)
